{"source": "patent US20110124614A1", "about": "“Methods And Compositions For The Treatment of Autoimmune Disorders” (priority 2008, published 2011)", "format_in_all_cases": "in vivo, mouse", "key": {"[1]": {"test_system": "PD-1 expression in CD4^+FoxP3^+ T cells", "assay": "PD-1 expression in CD4+FoxP3+ Treg cells by flow cytometry, WT mice (Example VI)", "protocol": "Splenocytes or lymph node cells were harvested from placebo-, E2- or G-1 treated mice after EAE induction as shown in FIG. 2A and stained for CD4, FoxP3 and PD-1. The expression levels of Pd-1 were analyzed by gating on CD4^+FoxP3^+ cells from placebo-, E2, or G-1 treated WT mice. For membrane staining, 1 million cells were stained at 4° C. in the dark with appropriate Ab dilutions in staining buffer (PBS containing 0.5% BSA and 0.02% sodium azide), Intracellular staining for FoxP3 was performed following the protocol recommended by eBioscience. Briefly, 4 million cells were surface stained following standard procedures. After washing, the cells were fixed overnight and washed twice with 0.5 ml of permeabilization buffer. The cells were co-stained for 15 min with FcBlock (Becton Dickinson, Franklin Lake., NJ) and IgG PerCp (eBioscience, San Diego, Calif.) followed 30 min later with fluorescent-labeled antibodies to FoxP3 (eBioscience, San Diego, Calif.) or isotype control. The cells were then washed twice with 2 ml of permeabilization buffer and once with 1 ml of staining buffer, and re-suspended in staining buffer. Flow cytometry data were collected on LSRII and FACSCalibur flow cytometers (BD Bioscience, Franklin Lakes, N.J.), and analyzed using FlowJo software (Tree Star, Ashland, Oreg.). Data represent 50,000-100,000 events unless otherwise noted. […] The histogram overlay compares the MFI of PD-1 in CD4^+FoxP3^+ T cells from different treatment groups. The bar charts show the average percentages of PD-1^+ CD4^+FoxP3^+ T cells and the average MFI of PD-1 in CD4^+FoxP3^+ T cells from all mice in each grip[/*P<0.05 or **P<0.01 compared to placebo control."}, "[2]": {"test_system": "T cells of GPR30KO EAE mice", "assay": "Ex vivo T cell proliferation to mMOG-35-55, GPR30KO mice", "details": "Example IV", "protocol": "Splenocytes and lymph node cells were harvested ex-vivo from G-1 and E2 implanted mice and cultured in a 96-well flat bottom tissue culture plate at 4×10^5 cells/well in stimulation medium in the presence of APC, irradiated (2500 rad) syngenic thymocytes at a ration of 1:10 (T:APCs) wither with or without mMog 35-55 peptide at varying concentrations. The cells were incubated for 3 days at 37° C. in 7% CO2 and pulsed with 0.5 μCi of [^3H] thymidine (Perkin-Elmer, Boston, Mass.) for the final 18 h of incubation. The cells were harvested onto glass fiber filters, and incorporated radioactivity was measured by a liquid scintillation counter. The cpm values (mean±SD) were calculated from triplicate wells. Stimulation index (SI) was calculated by dividing the experimental cpm by the control cpm."}, "EAE in GPR30KO mice": {"test_system": "EAE in GPR30KO mice", "assay": "EAE clinical scoring, G-1 or E2 pellets, GPR30KO mice (Example IV)"}, "EAE in PD-1KO mice": {"test_system": "EAE in PD-1KO mice", "assay": "EAE clinical scoring, G-1 or E2 pellets, PD-1KO mice (Example IX)"}, "EAE in wild-type B6 mice [3]": {"test_system": "EAE in wild-type B6 mice", "assay": "EAE clinical scoring, daily s.c. injection of G-1 or E2, wild-type B6 mice"}, "EAE in wild-type B6 mice [4]": {"test_system": "EAE in wild-type B6 mice", "assay": "EAE clinical scoring, G-1 vs E2 pellets at different doses, wild-type B6 mice (Example III)", "details": "for CDI / Daily / Mortality / Onset / Peak / Incidence: 34 days"}, "[5]": {"test_system": "CNS infiltration, demyelination and axonal damage in spinal cord of WT EAE mice", "assay": "Spinal cord histology (H&E, LFB-PAS, SMI312, SMI32), WT EAE mice", "source_text": "Spinal cords were dissected out for histology. Intact spinal columns were removed and dissected after fixation in 4% paraformaldehyde, dehydrated and embedding in paraffin. To examine neuroinflammation, the sections were stained with hematoxylin and eosin (H&E). To examine demyelination, the sections were stained with Luxon fast blue plus periodic acid Schiff (LFB-PAS). The mice from the clinical experiment shown in FIG. 2A were euthanized at the end of the experiment and spinal cords were dissected out for histology. Intact spinal cords were removed and dissected after fixation in 4% paraformaldehyde, dehydrated and embedding in paraffin. To examine neuroinflammation, the sections were stained with hematoxylin and eosin (H&E). To examine demyelination, the sections were stained with Luxon fast blue plus periodic acid Schiff (LFB-PAS). To visualize axonal damage, spinal cords were fixed in 4% paraformaldehyde (maass/volume in PBS, pH 7.4) at 4° C. for at least 48 h. The spinal cords were dissected out from the columns, cut into sections 1-2 mm in length from the sampled thoracic or […] cords, dehydrated and embedded in paraffin blocks. Then, 10 μm thick sections were cut from paraffin blocks and mounted onto pre-cleaned microscope slides. The sections were dewaxed and rehydrated sequentially by xylene (2 min), gradient ethanol (100%, 95%, 85%, 2 min each) and PBS (5 min) and then cooked (120° C.) in antigen unmasking agent Trilogy® (Cell Marque, Hot Springs, Ark.) for 10 min in a pressure steamer. […] The slides were counterstained with hematoxylin for 30-60 s to visualize nuclei, washed with tap water, dehydrated, and mounted with Cytoseal™ XYL mounting medium (Richard-Allan Scientific, Kalamazoo, Mich.). The sections were analyzed by light microscopy after staining and recorded with a digital camera."}, "[6]": {"test_system": "PD-L1 and PD-L2 expression", "assay": "PD-L1 and PD-L2 expression on APCs and T cells by flow cytometry (Example VIII)", "details": "treated WT EAE mice, FIG. 5C"}, "[7]": {"details": "GPR30KO, 1.8 mg/40 day G-1 pellet, 29 days"}, "[8]": {"details": "PD-1KO, 1.8 mg/40 day G-1 pellet, 20 days"}, "[9]": {"details": "G-1 injection, 20 μg/mouse/day s.c., 20 days"}}, "note": "Entries after “also recorded” stand apart in the source; their conditions may differ. Marks after values point to notes of the source that are not given here."}
{"smiles": "CC(=O)c1ccc2c(c1)C1C=CCC1C(c1cc3c(cc1Br)OCO3)N2", "note": "(stereo not drawn) [G-1]", "values": [{"measurement": "staining intensity of PD-1 in CD4^+FoxP3^+ cells", "setting": "[1]; spleen of treated WT mice, FIG. 5B", "result": "strongly enhanced"}, {"measurement": "boosting PD-1 expression in CD4^+FoxP3^+ cells, compared with E2", "setting": "[1]; treated WT mice", "result": "even more potent than E2"}, {"measurement": "conversion of CD4^+FoxP3^+PD-1^− cells to PD-1^+ cells", "setting": "[1]; treated WT mice, FIG. 5B", "result": "converted a majority"}, {"measurement": "T cell proliferation to mMog-35-55", "setting": "[2]", "result": "Neither G-1 nor E2 affected"}, {"measurement": "protection against EAE (in words)", "setting": "EAE in GPR30KO mice; G-1 1.8 mg/40 day pellet, GPR30KO mice", "result": "completely ineffective"}, {"measurement": "CDI", "setting": "EAE in GPR30KO mice; [7]", "result": "59.9 ± 13.4"}, {"measurement": "Daily", "setting": "EAE in GPR30KO mice; [7]", "result": "3.0 ± 0.7"}, {"measurement": "Mortality", "setting": "EAE in GPR30KO mice; [7]", "result": "0/8"}, {"measurement": "Onset", "setting": "EAE in GPR30KO mice; [7]", "result": "13.8 ± 1.2"}, {"measurement": "Peak", "setting": "EAE in GPR30KO mice; [7]", "result": "4.5 ± 0.7"}, {"measurement": "Incidence", "setting": "EAE in GPR30KO mice; GPR30KO, 1.8 mg/40 day release G-1 pellet, concluded 29 days after immunization", "result": "8/8"}, {"measurement": "protection against clinical EAE (in words)", "setting": "EAE in PD-1KO mice; G-1 1.8 mg/40 day pellet, PD-1KO mice", "result": "failed to protect"}, {"measurement": "CDI", "setting": "EAE in PD-1KO mice; [8]", "result": "30.6 ± 9.1"}, {"measurement": "Daily", "setting": "EAE in PD-1KO mice; [8]", "result": "2.7 ± 0.8"}, {"measurement": "Mortality", "setting": "EAE in PD-1KO mice; [8]", "result": "1/5"}, {"measurement": "Onset", "setting": "EAE in PD-1KO mice; [8]", "result": "13.8 ± 1.3"}, {"measurement": "Peak", "setting": "EAE in PD-1KO mice; [8]", "result": "4.8 ± 0.6"}, {"measurement": "Incidence", "setting": "EAE in PD-1KO mice; PD-1KO, 1.8 mg/40 day release G-1 pellet, euthanized after 20 days", "result": "5/5"}, {"measurement": "protection against EAE (in words)", "setting": "EAE in wild-type B6 mice [3]; G-1 20 μg/mouse/day s.c. injections", "result": "partially protective"}, {"measurement": "CDI", "setting": "EAE in wild-type B6 mice [3]; [9]", "result": "19.7 ± 11.3"}, {"measurement": "Daily", "setting": "EAE in wild-type B6 mice [3]; [9]", "result": "2.7 ± 1.3"}, {"measurement": "Mortality", "setting": "EAE in wild-type B6 mice [3]; [9]", "result": "1/8"}, {"measurement": "Onset", "setting": "EAE in wild-type B6 mice [3]; [9]", "result": "13.7 ± 1.3"}, {"measurement": "Peak", "setting": "EAE in wild-type B6 mice [3]; [9]", "result": "3.7 ± 1.6"}, {"measurement": "Incidence", "setting": "EAE in wild-type B6 mice [3]; G-1 injection, 20 μg/mouse/day s.c., euthanized 20 days after immunization", "result": "6/8"}, {"measurement": "CDI", "setting": "EAE in wild-type B6 mice [4]; 0.01 mg G-1 pellet", "result": "43.8 ± 39.9"}, {"measurement": "Daily", "setting": "EAE in wild-type B6 mice [4]; 0.01 mg G-1 pellet", "result": "1.8 ± 1.6"}, {"measurement": "Mortality", "setting": "EAE in wild-type B6 mice [4]; 0.01 mg G-1 pellet", "result": "0/6"}, {"measurement": "Onset", "setting": "EAE in wild-type B6 mice [4]; 0.01 mg G-1 pellet", "result": "13.6 ± 1.6"}, {"measurement": "Peak", "setting": "EAE in wild-type B6 mice [4]; 0.01 mg G-1 pellet", "result": "3.1 ± 1.7"}, {"measurement": "Incidence", "setting": "EAE in wild-type B6 mice [4]; 0.01 mg/40 day release G-1 pellet", "result": "5/6"}, {"measurement": "CDI", "setting": "EAE in wild-type B6 mice [4]; 0.1 mg G-1 pellet", "result": "18.8 ± 28.3"}, {"measurement": "Daily", "setting": "EAE in wild-type B6 mice [4]; 0.1 mg G-1 pellet", "result": "0.75 ± 1.3"}, {"measurement": "Mortality", "setting": "EAE in wild-type B6 mice [4]; 0.1 mg G-1 pellet", "result": "0/6"}, {"measurement": "Onset", "setting": "EAE in wild-type B6 mice [4]; 0.1 mg G-1 pellet", "result": "16.7 ± 2.3"}, {"measurement": "Peak", "setting": "EAE in wild-type B6 mice [4]; 0.1 mg G-1 pellet", "result": "1.5 ± 1.6"}, {"measurement": "Incidence", "setting": "EAE in wild-type B6 mice [4]; 0.1 mg/40 day release G-1 pellet", "result": "3/6"}, {"measurement": "CDI", "setting": "EAE in wild-type B6 mice [4]; 1.8 mg G-1 pellet", "result": "0**"}, {"measurement": "Daily", "setting": "EAE in wild-type B6 mice [4]; 1.8 mg G-1 pellet", "result": "0**"}, {"measurement": "Mortality", "setting": "EAE in wild-type B6 mice [4]; 1.8 mg G-1 pellet", "result": "0/7"}, {"measurement": "Peak", "setting": "EAE in wild-type B6 mice [4]; 1.8 mg G-1 pellet", "result": "0**"}, {"measurement": "Incidence", "setting": "EAE in wild-type B6 mice [4]; 1.8 mg/40 day release G-1 pellet one week before immunization", "result": "0/7**"}, {"measurement": "protection from clinical EAE (in words)", "setting": "EAE in wild-type B6 mice [4]; 1.8 mg/40 day release G-1 pellets", "result": "completely protected"}, {"measurement": "clinical EAE (in words), dose dependence", "setting": "EAE in wild-type B6 mice [4]; G-1 pellets 1.8, 0.1 or 0.01 mg/40 day release", "result": "delayed and ameliorated EAE in a dose-dependent manner"}, {"measurement": "protection from clinical EAE compared with E2", "setting": "EAE in wild-type B6 mice [4]; lower doses of G-1 pellets", "result": "less effective than E2"}, {"measurement": "immune cell infiltration and demyelination in the CNS (H&E, LFB-PAS)", "setting": "[5]; WT mice of FIG. 2A experiment, FIG. 4 upper panels", "result": "markedly ameliorated; also recorded: reduced"}, {"measurement": "axons in the spinal cords (SMI312 staining)", "setting": "[5]; WT mice, FIG. 4 lower left panel", "result": "well preserved"}, {"measurement": "axonal damage in spinal cord sections", "setting": "[5]; WT mice, FIG. 4 lower panels", "result": "reduced the level of axonal damage"}, {"measurement": "SMI32 staining in white matter of spinal cords (ongoing axonal damage)", "setting": "[5]; WT mice, FIG. 4 lower right panel", "result": "much less SMI32 staining"}, {"measurement": "PD-L1 expression on B cells and macrophages", "setting": "[6]", "result": "upregulated"}, {"measurement": "expression of PD-L2", "setting": "[6]", "result": "essentially no effect"}]}
